Measured values from patent US20020026053A1, “Novel 3-(substituted) -2- indolinones compounds and use thereof as inhibitors of protein kinase activity” (priority 1997, published 2002).

Target: T1, EGFR (Homo sapiens, UniProt P00533)
T1 construct: endogenous in cells; host or cells: A431 cells (lysate, captured with SUMO1 anti-EGFR antibody)
Experiment: Biochemical EGFR Assay
Parameters: concentration or dose not given beside the values
Details: protocol P.167
Summary of the method: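 EGFR from A431 lysate was captured on anti-EGFR-coated wells and preincubated 30 min with compound (diluted 1:10 in TBS) at room temperature. After ATP/MnCl2 phosphorylation for 5 min, the reaction was stopped with EDTA. Phosphotyrosine was detected by ELISA (anti-phosphotyrosine, peroxidase conjugate, ABTS) at 410 nm.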

T1 sequence (P00533 25-1210): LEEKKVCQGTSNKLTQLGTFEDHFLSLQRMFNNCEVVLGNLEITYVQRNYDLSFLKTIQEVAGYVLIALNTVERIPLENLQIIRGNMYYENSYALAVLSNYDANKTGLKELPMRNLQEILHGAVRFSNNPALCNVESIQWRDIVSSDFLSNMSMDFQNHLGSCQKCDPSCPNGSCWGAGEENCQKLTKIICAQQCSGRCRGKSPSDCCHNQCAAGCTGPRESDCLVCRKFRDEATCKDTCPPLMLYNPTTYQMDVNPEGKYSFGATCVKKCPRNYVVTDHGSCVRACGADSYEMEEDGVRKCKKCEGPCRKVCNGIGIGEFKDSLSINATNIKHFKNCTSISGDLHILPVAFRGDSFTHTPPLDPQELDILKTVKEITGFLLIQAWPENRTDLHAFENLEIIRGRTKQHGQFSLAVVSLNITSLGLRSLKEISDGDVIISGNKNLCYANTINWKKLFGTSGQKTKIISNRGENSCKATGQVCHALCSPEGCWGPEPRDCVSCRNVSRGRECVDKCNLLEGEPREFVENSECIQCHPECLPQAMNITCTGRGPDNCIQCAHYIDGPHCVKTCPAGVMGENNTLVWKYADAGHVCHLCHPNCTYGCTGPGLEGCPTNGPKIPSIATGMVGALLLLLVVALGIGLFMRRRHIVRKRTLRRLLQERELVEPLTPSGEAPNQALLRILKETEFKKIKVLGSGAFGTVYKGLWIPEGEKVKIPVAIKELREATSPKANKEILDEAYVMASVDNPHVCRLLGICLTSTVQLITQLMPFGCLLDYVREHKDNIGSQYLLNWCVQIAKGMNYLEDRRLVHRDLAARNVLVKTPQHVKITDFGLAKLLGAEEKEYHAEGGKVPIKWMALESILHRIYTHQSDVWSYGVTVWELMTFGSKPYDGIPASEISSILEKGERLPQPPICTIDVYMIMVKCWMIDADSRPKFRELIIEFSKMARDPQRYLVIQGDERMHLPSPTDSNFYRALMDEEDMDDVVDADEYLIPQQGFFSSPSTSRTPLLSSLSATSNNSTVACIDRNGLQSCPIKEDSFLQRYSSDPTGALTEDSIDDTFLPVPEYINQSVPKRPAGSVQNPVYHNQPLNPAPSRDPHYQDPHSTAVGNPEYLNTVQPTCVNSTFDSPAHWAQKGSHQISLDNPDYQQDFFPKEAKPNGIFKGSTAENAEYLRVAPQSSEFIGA

| SMILES | Biochem EGFR % Inhibition (P.167) [%] |
| --- | --- |
| Cc1c(Br)cc(Br)c2c1C(=Cc1cc(O)c(O)c(O)c1)C(=O)N2 [10739/H07] | 10.9 |
| COc1ccc(Oc2cccc(C=C3C(=O)Nc4c(Br)cc(Br)c(C)c43)c2)cc1 [10739/H08] | −28.5 |
| Cc1c(Br)cc(Br)c2c1C(=Cc1ccoc1)C(=O)N2 [10739/H10] | −26.6 |
